Among the data in patent publication US7064120B2, “Tricyclic pyridyl carboxamides and derivatives thereof tocolytic oxytocin receptor antagonists” (Wyeth, priority 2001, dated 2006) are inhibition values, retold here.

For the assay, the target named is T1, human vasopressin V2 receptor subtype (Homo sapiens, UniProt P30518).
T1 construct: host or cells: CHO cells, stably transfected (pZeoSV vector)
T1 sequence (P30518 whole entry): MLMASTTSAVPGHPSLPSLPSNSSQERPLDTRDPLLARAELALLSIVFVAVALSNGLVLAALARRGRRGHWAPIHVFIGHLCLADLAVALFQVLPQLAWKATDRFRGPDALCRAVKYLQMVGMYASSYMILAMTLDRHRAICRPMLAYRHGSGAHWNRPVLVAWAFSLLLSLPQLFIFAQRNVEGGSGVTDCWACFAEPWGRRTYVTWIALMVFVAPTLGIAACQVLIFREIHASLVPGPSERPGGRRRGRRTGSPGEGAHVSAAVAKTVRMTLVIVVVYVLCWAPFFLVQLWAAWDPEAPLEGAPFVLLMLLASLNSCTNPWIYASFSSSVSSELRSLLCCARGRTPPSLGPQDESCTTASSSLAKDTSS
Description: Vasopressin binding in CHO cell membranes expressing human vasopressin V2 subtype receptors ([3H]arginine vasopressin radioligand binding). Conditions: 100 nM. The procedure, abridged:
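Values are IC50 in nM or percent inhibition at a stated concentration, from scintillation counts after filtration. Binding ran 60 min at room temperature: [3H]arginine vasopressin, human V2-transfected CHO membranes (25 to 50 μg protein/well), pH 7.4 Tris-HCl buffer containing MgCl2, BSA, protease inhibitors.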
As to `COc1ccccc1-c1ccc(C(=O)N2Cc3ccc(C(=O)N(C)CCc4ccncc4)n3Cc3ccccc32)cc1OC` [Example 125, 10-[(2,2′-Dimethoxy-[1,1′-biphenyl]-4-yl)carbonyl]-N-methyl-N-[2-(4-pyridinyl)ethyl]-10,11-dihydro-5H-pyrrolo[2,1-c][1,4]benzodiazepine-3-carboxamide], the inhibition at 0.1 µM is -10%.

Turning to `COc1ccccc1-c1ccc(C(=O)N2Cc3ccc(C(=O)N(C)CCc4ccncc4)n3Cc3ccccc32)cc1C` [Example 126, 10-[(2′-Methoxy-2-methyl-[1,1′-biphenyl]-4-yl)carbonyl]-N-methyl-N-[2-(4-pyridinyl)ethyl]-10,11-dihydro-5H-pyrrolo[2,1-c][1,4]benzodiazepine-3-carboxamide], the inhibition at 0.1 µM was found to be 5%.

Consider `Cc1ccccc1-c1ccc(C(=O)N2Cc3ccc(C(=O)N(C)CCc4ccncc4)n3Cc3ccccc32)cc1C` [Example 127, 10-[(2,2′-Dimethyl-[1,1′-biphenyl]-4-yl)carbonyl]-N-methyl-N-[2-(4-pyridinyl)ethyl]-10,11-dihydro-5H-pyrrolo[2,1-c][1,4]benzodiazepine-3-carboxamide], for which the inhibition at 0.1 µM turned out to be 15%.

Turning to `COc1cccc(-c2ccc(C(=O)N3Cc4ccc(C(=O)N(C)CCc5ccncc5)n4Cc4ccccc43)cc2C)c1` [Example 128, 10-[(3′-Methoxy-2-methyl-[1,1′-biphenyl]-4-yl)carbonyl]-N-methyl-N-[2-(4-pyridinyl)ethyl]-10,11-dihydro-5H-pyrrolo[2,1-c][1,4]benzodiazepine-3-carboxamide], the inhibition at 0.1 µM turned out to be 10%.

Take `COc1ccccc1-c1ccc(C(=O)N2Cc3ccc(C(=O)N(C)CCc4ccncc4)n3Cc3ccccc32)cc1` [Example 129, 10-[(2′-Methoxy-[1,1′-biphenyl]-4-yl)carbonyl]-N-methyl-N-[2-(4-pyridinyl)ethyl]-10,11-dihydro-5H-pyrrolo[2,1-c][1,4]benzodiazepine-3-carboxamide]: the inhibition at 0.1 µM amounted to 28%.

Turning to `Cc1ccccc1-c1ccc(C(=O)N2Cc3ccc(C(=O)N(C)CCc4ccncc4)n3Cc3ccccc32)cc1` [Example 130, N-Methyl-10-[(2′-methyl-[1,1′-biphenyl]-4-yl)carbonyl]-N-[2-(4-pyridinyl)ethyl]-10,11-dihydro-5H-pyrrolo[2,1-c][1,4]benzodiazepine-3-carboxamide], the inhibition at 0.1 µM came out at 12%.

Consider `COc1cc(C(=O)N2Cc3ccc(C(=O)N(C)CCc4ccncc4)n3Cc3ccccc32)ccc1-c1ccccc1C` [Example 131, 10-[(2-Methoxy-2′-methyl-[1,1′-biphenyl]-4-yl)carbonyl]-N-methyl-N-[2-(4-pyridinyl)ethyl]-10,11-dihydro-5H-pyrrolo[2,1-c][1,4]benzodiazepine-3-carboxamide], for which the inhibition at 0.1 µM is -5%.

Consider `COc1cc(-c2ccccc2C)c(Cl)cc1C(=O)N1Cc2ccc(C(=O)N(C)CCc3ccncc3)n2Cc2ccccc21` [Example 132, 10-[(6-Chloro-3-methoxy-2′-methyl-[1,1′-biphenyl]-4-yl)carbonyl]-N-methyl-N-[2-(4-pyridinyl)ethyl]-10,11-dihydro-5H-pyrrolo[2,1-c][1,4]benzodiazepine-3-carboxamide], for which the inhibition at 0.1 µM turned out to be 25%.

`COc1cccc(-c2cc(OC)c(C(=O)N3Cc4ccc(C(=O)N(C)CCc5ccncc5)n4Cc4ccccc43)cc2Cl)c1` [Example 133, 10-[(6-Chloro-3,3′-dimethoxy-[1,1′-biphenyl]-4-yl)carbonyl]-N-methyl-N-[2-(4-pyridinyl)ethyl]-10,11-dihydro-5H-pyrrolo[2,1-c][1,4]benzodiazepine-3-carboxamide]: the inhibition at 0.1 µM turned out to be 15%.

`COc1cc(C(=O)N2Cc3ccc(C(=O)N(C)CCc4ccncc4)n3Cc3ccccc32)ccc1-c1cccc2ccccc12` [Example 134, 10-[3-Methoxy-4-(naphthalen-1-yl)benzoyl]-N-methyl-N-[2-(4-pyridinyl)ethyl]-10,11-dihydro-5H-pyrrolo[2,1-c][1,4]benzodiazepine-3-carboxamide]: the inhibition at 0.1 µM is 1%.

For the molecule `COc1cccc(-c2ccc(C(=O)N3Cc4ccc(C(=O)N(C)CCc5ccncc5)n4Cc4ccccc43)cc2OC)c1` [Example 135, 10-[(2,3′-Dimethoxy-[1,1′-biphenyl]-4-yl)carbonyl]-N-methyl-N-[2-(4-pyridinyl)ethyl]-10,11-dihydro-5H-pyrrolo[2,1-c][1,4]benzodiazepine-3-carboxamide], the inhibition at 0.1 µM was 35%.

`CN(CCc1ccncc1)C(=O)c1ccc2n1Cc1ccccc1N(C(=O)c1ccc(-c3cccc4ccccc34)cc1Cl)C2` [Example 136, 10-[2-Chloro-4-(naphthalen-1-yl)benzoyl]-N-methyl-N-[2-(4-pyridinyl)ethyl]-10,11-dihydro-5H-pyrrolo[2,1-c][1,4]benzodiazepine-3-carboxamide]: the inhibition at 0.1 µM is 19%.

Consider `Cc1cc(C(=O)N2Cc3ccc(C(=O)N(C)CCc4ccncc4)n3Cc3ccccc32)ccc1-c1ccccc1C(F)(F)F` [Example 137, N-Methyl-10-{[2-methyl-2′-trifluoromethyl-[1,1′-biphenyl]-4-yl]carbonyl}-N-[2-(4-pyridinyl)ethyl]-10,11-dihydro-5H-pyrrolo[2,1-c][1,4]benzodiazepine-3-carboxamide], for which the inhibition at 0.1 µM came out at 11%.

As for `COc1ccccc1-c1ccc(C(=O)N2Cc3ccc(C(=O)N4CCCCC4c4cccnc4)n3Cc3ccccc32)cc1C` (stereo not drawn) [Example 138, {10-[(2′-Methoxy-2-methyl-[1,1′-biphenyl]-4-yl)carbonyl]-10,11-dihydro-5H-pyrrolo[2,1-c][1,4]benzodiazepin-3-yl}[2-(3-pyridinyl)-1-piperidinyl]methanone], the inhibition at 0.1 µM turned out to be 42%.

In the case of `COc1ccccc1-c1ccc(C(=O)N2Cc3ccc(C(=O)N4CCCCC4c4cccnc4)n3Cc3ccccc32)cc1` (stereo not drawn) [Example 139, {10-[(2′-Methoxy-[1,1′-biphenyl]-4-yl)carbonyl]-10,11-dihydro-5H-pyrrolo[2,1-c][1,4]benzodiazepin-3-yl}[2-(3-pyridinyl)-1-piperidinyl]methanone], the inhibition at 0.1 µM worked out at 34%.

For the molecule `COc1cc(-c2ccccc2C)c(Cl)cc1C(=O)N1Cc2ccc(C(=O)N3CCCCC3c3cccnc3)n2Cc2ccccc21` (stereo not drawn) [Example 140, {10-[(6-Chloro-3-methoxy-2′-methyl-[1,1′-biphenyl]-4-yl)carbonyl]-10,11-dihydro-5H-pyrrolo[2,1-c][1,4]benzodiazepin-3-yl}[2-(3-pyridinyl)-1-piperidinyl]methanone], the inhibition at 0.1 µM was 29%.

With `COc1ccccc1-c1ccc(C(=O)N2Cc3ccc(C(=O)N4CCCCC4c4cccnc4)n3Cc3ccccc32)cc1OC` (stereo not drawn) [Example 141, {10-[(2,2′-Dimethoxy-[1,1′-biphenyl]-4-yl)carbonyl]-10,11-dihydro-5H-pyrrolo[2,1-c][1,4]benzodiazepin-3-yl}[2-(3-pyridinyl)-1-piperidinyl]methanone], the inhibition at 0.1 µM was found to be 40%.

As to `Cc1cc(C(=O)N2Cc3ccc(C(=O)N4CCCCC4c4cccnc4)n3Cc3ccccc32)ccc1-c1ccccc1C(F)(F)F` (stereo not drawn) [Example 142, (10-{[2-Methyl-2′-trifluoromethyl-[1,1′-biphenyl]-4-yl]carbonyl}-10,11-dihydro-5H-pyrrolo[2,1-c][1,4]benzodiazepin-3-yl)[2-(3-pyridinyl)-1-piperidinyl]methanone], the inhibition at 0.1 µM was determined as 16%.
